Like-named read-outs stand apart in the source and are kept apart here. Bridge positions count the residues as written; N and C are the ends. Square brackets hold non-standard residues; d marks the D form. Peptide text beside a SMILES is read from it. * marks the point of attachment. Acetyl(1-adamantyl) = O=C(CC12CC3CC(CC(C3)C1)C2)*; 2Thi = N[C@@H](Cc1cccs1)C(=O)O; 4Amb = NCc1ccc(C(=O)O)cc1

Consider eleven molecules from US5721210A, “Cyclic cell adhesion modulation compounds” (priority 1995, dated 1998).

Experiment [1] has as its system U937 cells (fibronectin receptor) adhering to fibronectin-coated wells.
Experiment [2] has as its system Jurkat T-cells adhering to IL-1 stimulated human umbilical vein endothelial cell monolayers. As to the kind of experiment: Jurkat-endothelial cell adhesion assay (Cell Adhesion Inhibition Assay II). Format: cell-based. The note with it: for 10 μM% (percentage inhibition at 10 μM): 10 μM peptide; for 10 μM% (percentage inhibition at 10 μM) / 200 μM% (percentage inhibition at 200 μM): Jurkat cells on IL-1 stimulated endothelial monolayers, 20 min at 37° C.; for 200 μM% (percentage inhibition at 200 μM): 200 μM peptide. The protocol: The following assay established the activity of the present compound in inhibiting cell-cell adhesion in a representative in vitro system. This assay measures the adhesive interactions of T-cells to endothelial cell monolayers in the presence of a test compound. The test compound is added in increasing concentrations with T-cells and this is added to endothelial cell monolayers. The plates are incubated, washed and the percentage of attached cells is quantitated.
Human umbilical vein endothelial cells were purchased from Clonetics (San Diego, Calif.) at passage number 2. The cells were grown on 0.5% porcine skin gelatin pre-coated flasks (Sigma, St. Louis, Mo.) in EGM-UV media (Clonetics, San Diego, Calif.) supplemented with 10% fetal bovine serum. Cells were refed every 2-3 days reaching confluence by day 4 to 6. […] The endothelial cells were not used following passage 14-15.
The T-cell line Jurkat was obtained from American Type Tissue Culture Collection (Rockville, Md.). The cells were cultured in RPMI media containing 10% fetal calf serum. The cells were washed twice with Hank's Balanced Salt Solution (HBSS) and resuspended in Dulbecco's […] Eagle's Media (DMEM) containing 2.5 mg/ml Human Serum Albumin (HSA). The Jurkat cells (1×10^6 cells/ml) were stained with 10 μg/ml fluorescein diacetate (Sigma, St. Louis, Mo.) in HSSS containing 5% fetal calf serum. The cells were stained for 15 minutes in the dark at room temperature, washed 2 times, and resuspended in a DMEM-HSA solution.
Confluent endothelial monolayers grown in 96-well tissue culture plates were stimulated for 4 hours at 37° C. with 0.1 ng/ml (^~ 50 U/ml) recombinant IL-1 (Amgen, Thousand Oaks, Calif.). Following this incubation, the monolayers were washed twice with HBSS and 0.1 ml of DMEM-HSA solution was added. Jurkat cells (5×10^5 cells) were combined with appropriate concentrations of a peptide to be tested and 0.1 ml of the Jurkat-peptide mixture were added to the endothelial cell monolayers. Generally, 200 and 10 μM peptide concentrations were tested. […] The plates were placed on ice for 5 minutes to allow for Jurkat cell settling and then incubated at 37° C. for 20 minutes. Following this incubation, the monolayers were washed twice with PBS containing 1 mM calcium chloride and 1 mM magnesium chloride and the plates were read using a Pandex Fluorescence Concentration Analyzer (Baxter, Mundelein, Ill.). Fluorescence in each well was measured as arbitrary fluorescence units and percent adhesion in the absence of a peptide was adjusted to 100% and the percentage adhesion in the presence of the peptide was calculated. Monolayers were also fixed in 3% paraformaldehyde and evaluated microscopically to verify adhesion.

Setting [3] is: read-out: IC50 μM, U937 cells on fibronectin-coated wells, 60 min at 37° C., concentration at which adhesion is inhibited to 50% of control.

With `N=C(N)NCCC[C@@H]1NC(=O)[C@@H](N)CSSC[C@@H](C(=O)O)NC(=O)[C@H](Cc2cccs2)NC(=O)[C@H](CC(=O)O)NC(=O)CNC1=O` [Peptide 70, C*RGD(TA)C*] (H-CRGD[2Thi]C-OH; disulfide 1-6), the IC50 – broadly, the point on the concentration scale where inhibition reaches its midpoint – in experiment [1] (setting [3]) was determined as 190 µM.

`COc1ccc(C[C@@H]2NC(=O)[C@H](CC(=O)O)NC(=O)CNC(=O)[C@H](CCCNC(=N)N)NC(=O)[C@@H](NC(=O)CNC(=O)CNC(=O)CC34CC5CC(CC(C5)C3)C4)CSSC[C@@H](C(N)=O)NC(=O)[C@@H]3CCCN3C2=O)cc1` [Peptide 96, (Ada)-GGC*RGDY(p-OCH3 -Tyr)PC*-NH2] ({Acetyl(1-adamantyl)}-GGCRGDY(Me)PC-NH2; disulfide 3-9): the IC50 in experiment [1] (setting [3]) came to 9 µM.

Take `N=C(N)NCCC[C@H](N)C(=O)N[C@H]1CSSC[C@@H](C(=O)O)NC(=O)[C@H](Cc2cccs2)NC(=O)[C@H](CC(=O)O)NC1=O` [Peptide 101, RC*D(TA)C*] (H-RCD[2Thi]C-OH; disulfide 2-5): the IC50 in experiment [1] (setting [3]) was 258 µM.

Turning to RC*D(TTC)C* [Peptide 122], the IC50 in experiment [1] (setting [3]) turned out to be 6 µM.

On to (1-FCA)RC*D(TTC)C* [Peptide 132], for which, in experiment [1] (setting [3]), the IC50 was determined as 92 µM.

In the case of (FMOC)-RC*D(TTC)C* [Peptide 166], in experiment [2], the “10 μM% (percentage inhibition at 10 μM)” value was 18% and the “200 μM% (percentage inhibition at 200 μM)” value is on record as 11%. For the same molecule, the concentration for half-maximal inhibition (IC50) in experiment [2] (Jurkat-endothelial cell adhesion, peptides tested at 200, 40, 8, 1.6, 0.32, 0.064 μM) was 0.9 µM.

Regarding (CPA)-RC*D-(3-thioPro)C* [Peptide 110], the IC50 in experiment [1] (setting [3]) was found to be 8 µM.

On to `N=C(N)NCCC[C@@H]1NC(=O)c2ccc(cc2)CNC(=O)[C@H](CC(=O)O)NC(=O)CNC1=O` (cyclo(RGD[4Amb])), for which the IC50 in experiment [1] is 251 µM.

`N=C(N)NCCC[C@@H]1NC(=O)CNC(=O)C[C@@H](C(N)=O)NC(=O)[C@@H]2CCCN2C(=O)[C@H](CO)NC(=O)[C@H](CC(=O)O)NC(=O)CNC1=O` [Peptide 22, G*RGDSPD*-NH2] (GRGDSPD-NH2; lactam N-7): the IC50 in experiment [1] (setting [3]) amounted to 112 µM.

As for `N=C(N)NCCC[C@@H]1NC(=O)CNC(=O)C[C@@H](C(N)=O)NC(=O)[C@@H]2CCCN2C(=O)[C@H](CO)NC(=O)[C@H](CC(=O)O)NC(=O)CNC1=O` [Peptide 47, G*RGDSPD*-NH2] (GRGDSPD-NH2; lactam N-7), the IC50 in experiment [1] (setting [3]) was found to be 134 µM.

Consider (FMOC)-RC*(DTC)C* [Peptide 156], for which, in experiment [2], the “10 μM% (percentage inhibition at 10 μM)” value turned out to be 90% and the “200 μM% (percentage inhibition at 200 μM)” value is 32%.
